In patent US8362070B2, “Application of puerarin in the preparation of P2X3 mediated drugs for pain/nervous system diseases” (Nanchang University, priority 2009, dated 2013):

Columns and labels:
Format in all cases: in vivo, rat
[1] = test system: rats that suffer from neuropathic pain (chronic constriction injury of sciatic nerve); assay: Thermal hyperalgesia (thermal withdrawal latency) in rats with neuropathic pain (CCI); details: for thermal withdrawal latency (TWL) in comparison with group III (CCI): CCI rats, puerarin i.p. 50 mg/mL, 4 mL/kg daily, idomethine 4 mg/kg/d i.p. (seven days after ligation), p<0.01
Experimental: Male SD rats, 220-250 g were provided by the Department of Experimental Animals from the Medical College of Nanchang University. The rats were divided into […] at random and 12 rats were included in each group. Experimental grouping: I (sham); II (puerarin); III (chronic constriction injuries, CCI); IV (CCI+puerarin); V (control); VI (CCI+Indo). The puerarin injection was dissolved in physiological saline and the concentration was 50 mg/mL. Group I were subjected to intraperitoneal injection of physiological saline (4 mL/kg); Group II were subjected to intraperitoneal injection of puerarin injection (4 mL/kg); Skins of the […] were cut open and their sciatic nerves were exposed, then their skin was sew up without ligating nerves. Group IV were subjected to intraperitoneal injection of puerarin injection (4 mL/kg) everyday on the first day after CCI operation. Intraperitoneal injection of idomethine (4 mg/kg/d) was carried out on the rats in […] half an hour before the operation and after the operation everyday, and the injection was carried out once a day until the test was finished.
Thiopental sodium was used to anesthetize the rats (30 mg/kg, intraperitoneal injection), and the skin in the outer side of right thighs of the rats was cut open under sterile conditions, and blunt dissection was carried out to isolate the sciatic nerves, then the sciatic nerves were slightly ligated with 4-0 chromicized catgut and four ligations were carried out in total, and an interval of about 1 mm was left between two knots. […] The rats were raised in separate cages after the operation, and mechanical withdrawal threshold and thermal withdrawal latency were determined before the operation (0 d) and 1, 3, 5, 7, 9, 11, 14 days after the operations respectively (Time for the determination is set at 10[…]00-14[…]100 everyday, and the room temperature was maintained at 22±0.5° C.).
The organic glass box was placed on a glass plate of 3 mm thick and BME-410C type automatic thermalgia stimulator (Institute of Biomedical Engineering, Chinese Academy of Medical Sciences) was used to irradiate the footplates of rats. The time for the appearance of leg withdrawal after the irradiation on footplates of rats by using the thermal radiation stimulator was considered as the thermal withdrawal latency (TWL). The time for cutting off was 30 seconds in order to prevent burn on tissues.

P2X3 receptor [2] = assay: Immunohistochemistry of P2X3 receptor expression in dorsal root ganglion of CCI rats; details: L4/L5 DRG
P2X3 receptor [3] = assay: Immunohistochemical analysis of P2X3 expression in dorsal root ganglion of burn rats; details: n=10
Experimental: SD rats (their body weights were 200±20 g) were randomly divided into the group I (sham back burn), the group II (Puerarin, intraperitoneal injection), the group III (superficial second degree back burn), the group IV (superficial second degree back burn+puerarin), the group V (control) and the group VI (superficial second degree back burn+Indocin). The rats in the group IV (superficial second degree back burn+puerarin) were subjected to intraperitoneal injection of puerarin (100 mg/kg) everyday for continuous three days 30 minutes before burn and after burn. Immunohistochemical analysis was used to detect the change in P2X3 expression in dorsal root ganglion in burn position of rats. Results of immunohistochemical analysis were subjected to analysis by using Hmias-2000 high-resolution color medical image analysis system.

[4] = CCI rats + drug, 14 days after operation, CCI 1.64±0.05, control 1.15±0.03
[5] = superficial second degree back burn + drug (puerarin 100 mg/kg i.p. three days), burn 1.21±0.04, control 1.03±0.02

Compound	thermal withdrawal latency (TWL) in comparison with group III (CCI) [1]	average optical density of P2X3 positive neurons (P2X3 receptor, immunohistochemistry) (P2X3 receptor [2]; [4])	average optical density (P2X3 expression, immunohistochemistry, DRG) (P2X3 receptor [3]; [5])	thermal withdrawal latency, difference from group V (control) after 14 days ([1]; CCI rats + puerarin, 14 days, p>0.05)	thermal withdrawal latency, difference among sham, puerarin alone and control ([1]; puerarin alone, no CCI, p>0.05)	average optical density of P2X3 positive neurons (P2X3 receptor, immunohistochemistry) (P2X3 receptor [2]; puerarin alone, no CCI, 14 days)	average optical density (P2X3 expression, immunohistochemistry, DRG) (P2X3 receptor [3]; puerarin alone i.p., no burn)
COc1ccc2c(c1)c(CC(=O)O)c(C)n2C(=O)c1ccc(Cl)cc1 [Indocin, Indometacin]	increased	1.34±0.04	1.16±0.03				
O=c1c(-c2ccc(O)cc2)coc2c([C@@H]3O[C@H](CO)[C@@H](O)[C@H](O)[C@H]3O)c(O)ccc12 [puerarin]	significantly increased	1.28±0.04	1.10±0.02	not statistically significant	not significant	1.07±0.03	1.01±0.02
